We go through eight compounds from US20240262842A1, “SMALL MOLECULE INHIBITORS OF KRAS G12C MUTANT” (Merck Sharp & Dohme LLC, priority 2021, published 2024).

Like-named read-outs stand apart in the source and are kept apart here.

One experiment deals with MIA PaCa-2 cells. The experiment is described as follows: Growth inhibition activity on KRAS-G12C mutant cell line (CellTiter-Glo 3D). In kind it is cell-based, human. As to conditions: MIA PaCa-2, 3-day culture with compound. The method, boiled down: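 MIA PaCa-2 cells in RPMI1640 with 10% FBS, U-bottom wells, cultured 1 day before compound (0.2% DMSO final), then 3 days at 37 °C, 5% CO2. Viability by CellTiter-Glo 3D luminescence; growth inhibition versus untreated wells gives IC50 (nM).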
(ATP-based viability assays read luminescence as a measure of living cells.)

Experiment [1] concerns the target T1, interaction between GMPPNP-bound recombinant K-Ras4B G12C mutant protein and cRAF RAS-binding domain (cRAF-RBD) (Homo sapiens, UniProt P01116, G12C).
T1 construct: His-tag (N)
Nature of the experiment: Inhibitory activity on interaction between KRAS G12C and cRAF (Alpha technology). The method, boiled down: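 His-tagged K-Ras4B G12C (aa 1-169), GMPPNP-loaded, preincubated with compound 1 h at 25° C in pH 7.5 Tris buffer with MgCl2, TCEP, Tween 20. cRAF-RBD (aa 50-132) and Alpha reagents then added for 1.5 h; Alpha signal normalised to DMSO (0%) and GDP-bound KRAS (100%); IC50 from dose titration.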

[2] abbreviates: Homo sapiens, MIA PaCa-2, 72 h, Table 3-1.
[3] abbreviates: GMPPNP-bound KRAS G12C incubated with compound 25° C. 1 hour, Table 2-1, read-out: IC50.
[4] abbreviates: IC50, GMPPNP-bound KRAS G12C incubated with compound 25° C. 1 hour, Table 2-1.

T1 sequence (P01116 with tags, fused parts or gaps isoform P01116-2 G12C): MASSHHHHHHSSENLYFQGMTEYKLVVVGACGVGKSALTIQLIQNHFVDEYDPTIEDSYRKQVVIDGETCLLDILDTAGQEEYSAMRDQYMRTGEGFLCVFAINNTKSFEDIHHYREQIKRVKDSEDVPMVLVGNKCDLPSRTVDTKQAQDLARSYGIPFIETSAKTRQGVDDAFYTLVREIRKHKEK

As to `Cn1cnc2c3c(c(C(F)(F)F)cc21)-c1cccn2c(C(=O)c4cc(F)c(NC(=O)/C=C/CN5CC[C@H]6CC[C@H](O)[C@H]65)c(F)c4)cc(c12)CCO3` (racemic) [Example 163], the concentration for half-maximal inhibition (IC50) in the experiment on MIA PaCa-2 cells (setting [2]) turned out to be 42.7 nM; in experiment [1] (setting [3]), 33.5 nM.
In the same order, the values of `Cc1nc2c3c(c(C(F)(F)F)cc2n1C)-c1cccn2c(C(=O)c4ccc(NC(=O)/C=C/CNC5(C)COC5)cn4)cc(c12)CCO3` [Example 60, (E)-N-(6-(9,10-dimethyl-7-(trifluoromethyl)-13,14-dihydro-9H-imidazo-[4″,5″:5′,6′]benzo[1′,2′: 2,3]oxocino[4,5,6-hi]-indolizine-2-carbonyl)-pyridin-3-yl)-4-((3-meth-yloxetan-3-yl)amino)but-2-enamide] are 32.1 nM and 73.2 nM.
`Cc1cc2c(nc(C)n2C)c2c1-c1cccc3c(C(=O)c4cc(F)c(NC(=O)/C=C/CN5CC[C@H]5CO)c(F)c4)cn(c13)CCN2C` [Example 132, (S,E)-N-(2,6-difluoro-4-(6,8,9,11-tetramethyl-8,11,12,13-tetrahydro-imidazo[4″,5″:5′,6′]-benzo[1′,2′:5,6][1,4]-diazocino[7,8,1-hi]indole-2-carbonyl)phenyl)-4-(2-(hydroxymethyl)azetidin-1-yl)but-2-enamide]: the IC50 with MIA PaCa-2 cells (setting [2]) came out at 16.7 nM; in experiment [1] (setting [4]), 10.8 nM.
As for `CC(C)(C)NC/C=C/C(=O)Nc1c(F)cc(C(=O)c2cn3c4c(cccc24)-c2c(Cl)cccc2OCCC3)cc1F` (single isomer, unassigned) [Example 2-2, (E)-4-(tert-butylamino)-N-(4-(11-chloro-5,6-dihydro-4H-benzo[8,9][1,5]oxazonino[7,6,5-hi]indole-1-carbonyl)-2,6-difluorophenyl)but-2-enamide], the IC50 turned out to be 390 nM in the experiment on MIA PaCa-2 cells (Table 3) and 500 nM in experiment [1] (IC50, GMPPNP-bound KRAS G12C incubated with compound 25° C. 1 hour, Table 2).
Turning to `Cc1cc2c(nc(C)n2C)c2c1-c1cccc3c(C(=O)c4cc(F)c(NC(=O)/C=C/CN5CC[C@H]5C(C)(C)O)c(F)c4)cn(c13)CCN2C` [Example 139, (S,E)-N-(2,6-difluoro-4-(6,8,9,11-tetramethyl-8,11,12,13-tetrahydro-imidazo[4″,5″:5′,6′]benzo-[1′,2′:5,6][1,4]diazocino-[7,8,1-hi]indole-2-carbon-yl)phenyl)-4-(2-(2-hydroxypropan-2-yl)-azetidin-1-yl)but-2-en-amide], the values for the IC50 (with MIA PaCa-2 cells (setting [2]); in experiment [1] (setting [4])) were 57.9 nM and 59 nM, respectively.
As to `Cc1nc2c3c(c(C(F)(F)F)cc2n1C)-c1cccn2c(C(=O)c4cc(F)c(NC(=O)/C=C/CNC5(C)COC5)c(F)c4)cc(c12)CCO3` (single isomer, unassigned) [Example 31-2, (E)-N-(4-(9,10-dimethyl-7-(trifluoromethyl)-13,14-dihydro-9H-imidazo[4″,5″:5′,6′]benzo[1′,2′:2,3]oxocino[4,5,6-hi]indolizine-2-carbonyl)-2,6-difluorophenyl)-4-((3-methyloxetan-3-yl)amino)but-2-enamide], the IC50 with MIA PaCa-2 cells (Table 3) is 9200 nM; in experiment [1] (GMPPNP-bound KRAS G12C incubated with compound 25° C. 1 hour, Table 2, read-out: IC50) it was over 6700 nM.
On to `CN1CCc2cc(C(=O)c3cc(F)c(NC(=O)/C=C/CN4[C@@H]5CC[C@H]4[C@H](O)C5)c(F)c3)n3cccc(c23)-c2c(C(F)(F)F)cc3c(ncn3C)c21` (single isomer, unassigned) [Example 207], for which the 50% inhibitory concentration (IC50) in the experiment with MIA PaCa-2 cells (Table 3-1) is 11.2 nM; in experiment [1] (setting [3]), 26.9 nM.
For `CN1CCc2cc(C(=O)c3cc(F)c(NC(=O)/C=C/CNC4(C)CC4)c(F)c3)n3cccc(c23)-c2c(C(F)(F)F)cc3c(ncn3C)c21` [Example 214, (E)-N-(4-(9.12-dimethyl-7-(trifluoromethyl)-9,12,13,14-tetrahydro-imidazo[4″,5″:5′,6′]benzo-[1′,2′:2,3]azocino[4,5,6-hi]indolizine-2-carbonyl)-2,6-difluorophenyl)-4-((1-methylcyclopropyl)amino)-but-2-enamide], the IC50 worked out at 1.1 nM with MIA PaCa-2 cells (setting [2]) and 11.5 nM in experiment [1] (setting [3]).

A word on the IC50: it is the midpoint of a concentration-inhibition curve.
